This test deals with Human LDHA (Homo sapiens (Human), UniProt P00338). The experiment in a line: human LDHA primary biochemical assay (Example 1). Particulars: biochemical LDHA inhibitory activity, assay of Example 1. The text has this:
This example describes a human LDHA primary biochemical assay employed in the characterization of a compound of Formula I in an embodiment of the dislcosure.
Test compounds were placed in a Greiner Bio-One (Monroe, N.C.) 1536-well black solid bottom assay plate. 200 millimolar (mM) Tris HCl, pH 7.4, 100 micromolar (μM) EDTA and 0.01% TWEEN-20™, final concentration, was used as the assay buffer. The LDHA reagent was 2 nanomolar (nM) Human LDHA (Meridian Life Science, Inc., Memphis, Tenn.), final concentration, in assay buffer. The substrate reagent was 0.06 mM NADH and 0.2 mM sodium pyruvate, final concentration, in assay buffer. The resazurin/diaphorase coupling reagent was 0.037 mM resazurin and 0.133 milligrams per milliliter (mg/mL) diaphorase, final concentration, in assay buffer. The inhibition of LDHA activity was measured by fluorescence emission. […]
As usually defined, the IC50 is the concentration needed to halve the response being measured. On to `NS(=O)(=O)c1ccc(Cc2c(-c3ccc(F)c(C4=CCC(C(F)(F)F)CC4)c3)nn(-c3nc(C(=O)O)cs3)c2CC2CC2)cc1F` (stereo not drawn) [Compound 102, 2-(5-(cyclopropylmethyl)-3-(6-fluoro-4′-(trifluoromethyl)-2′,3′,4′,5′-tetrahydro-[1,1′-biphenyl]-3-yl)-4-(3-fluoro-4-sulfamoylbenzyl)-1H-pyrazol-1-yl)thiazole-4-carboxylic acid], for which the IC50 is < 100 nM.

Consider `NS(=O)(=O)c1ccc(Cc2c(-c3ccc(F)c(C4=Cc5ccccc5C4)c3)nn(-c3nc(C(=O)O)cs3)c2CC2CC2)cc1F` [Compound 105, 2-(5-(cyclopropylmethyl)-3-(4-fluoro-3-(1H-inden-2-yl)phenyl)-4-(3-fluoro-4-sulfamoylbenzyl)-1H-pyrazol-1-yl)thiazole-4-carboxylic acid], for which the IC50 is < 100 nM.

`NS(=O)(=O)c1ccc(Cc2c(-c3ccc(F)c(C4=CCC(F)(F)CC4)c3)nn(-c3nc(C(=O)O)cs3)c2CC2CC2)cc1F` [Compound 107, 2-(5-(cyclopropylmethyl)-4-(3-fluoro-4-sulfamoylbenzyl)-3-(4′,4′,6-trifluoro-2′,3′,4′,5′-tetrahydro-[1,1′-biphenyl]-3-yl)-1H-pyrazol-1-yl)thiazole-4-carboxylic acid]: the IC50 was < 100 nM.

With `NS(=O)(=O)c1ccc(Cc2c(-c3ccc(F)c(C4=CCC5(CC4)CC5)c3)nn(-c3nc(C(=O)O)cs3)c2CC2CC2)cc1F` [Compound 108, 2-(5-(cyclopropylmethyl)-3-(4-fluoro-3-(spiro[2.5]oct-5-en-6-yl)phenyl)-4-(3-fluoro-4-sulfamoylbenzyl)-1H-pyrazol-1-yl)thiazole-4-carboxylic acid], the IC50 is < 100 nM.

As for `CCC#Cc1cc(-c2nn(-c3nc(C(=O)O)cs3)c(CC3CC3)c2Cc2ccc([S+](N)(=O)[O-])c(F)c2)ccc1F` [Compound 109, 2-(3-(3-(but-1-yn-1-yl)-4-fluorophenyl)-5-(cyclopropylmethyl)-4-(3-fluoro-4-sulfamoylbenzyl)-1H-pyrazol-1-yl)thiazole-4-carboxylic acid], the IC50 is < 100 nM.

Consider `Cc1ccc(C2CC(c3cccc(-c4nn(-c5nc(C(=O)O)cs5)c(CC5CC5)c4Cc4ccc(S(N)(=O)=O)c(F)c4)c3)C2)s1` (stereo not drawn) [Compound 133, 2-(5-(cyclopropylmethyl)-4-(3-fluoro-4-sulfamoylbenzyl)-3-(3-(3-(5-methylthiophen-2-yl)cyclobutyl)phenyl)-1H-pyrazol-1-yl)thiazole-4-carboxylic acid], for which the IC50 was < 100 nM.

For `Cc1ccc(C#Cc2cccc(-c3nn(-c4nc(C(=O)O)cs4)c(C4CC4C4CC4)c3Cc3ccc(S(N)(=O)=O)c(F)c3)c2)s1` (stereo not drawn) [Compound 134, 2-(5-([1,1′-bi(cyclopropan)]-2-yl)-4-(3-fluoro-4-sulfamoylbenzyl)-3-(3-((5-methylthiophen-2-yl)ethynyl)phenyl)-1H-pyrazol-1-yl)thiazole-4-carboxylic acid], the half-maximal inhibitory concentration (IC50) lay within 100 to 1000 nM.

For `NS(=O)(=O)c1ccc(Cc2c(-c3ccc(F)c(-c4ccc(F)c(F)c4)c3)nn(-c3nc(C(=O)O)cs3)c2CC2CC2)cc1F` [Compound 136, 2-(5-(cyclopropylmethyl)-4-(3-fluoro-4-sulfamoylbenzyl)-3-(3′,4′,6-trifluoro-[1,1′-biphenyl]-3-yl)-1H-pyrazol-1-yl)thiazole-4-carboxylic acid], the IC50 was < 100 nM.

Take `NS(=O)(=O)c1ccc(Cc2c(-c3ccc(F)c(-c4ccc(C(F)(F)F)cc4)c3)nn(-c3nc(C(=O)O)cs3)c2CC2CC2)cc1F` [Compound 138, 2-(5-(cyclopropylmethyl)-3-(6-fluoro-4′-(trifluoromethyl)-[1,1′-biphenyl]-3-yl)-4-(3-fluoro-4-sulfamoylbenzyl)-1H-pyrazol-1-yl)thiazole-4-carboxylic acid]: the IC50 is < 100 nM.

Turning to `NS(=O)(=O)c1ccc(Cc2c(-c3ccc(F)c(-c4ccc(Cl)cc4)c3)nn(-c3nc(C(=O)O)cs3)c2CC2CC2)cc1F` [Compound 139, 2-(3-(4′-chloro-6-fluoro-[1,1′-biphenyl]-3-yl)-5-(cyclopropylmethyl)-4-(3-fluoro-4-sulfamoylbenzyl)-1H-pyrazol-1-yl)thiazole-4-carboxylic acid], the half-inhibitory concentration (IC50) was < 100 nM.

Turning to `CC(C)c1ccc(-c2cc(-c3nn(-c4nc(C(=O)O)cs4)c(CC4CC4)c3Cc3ccc(S(N)(=O)=O)c(F)c3)ccc2F)cc1` [Compound 142, 2-(5-(cyclopropylmethyl)-3-(6-fluoro-4′-isopropyl-[1,1′-biphenyl]-3-yl)-4-(3-fluoro-4-sulfamoylbenzyl)-1H-pyrazol-1-yl)thiazole-4-carboxylic acid], the IC50 was in the range of 100 to 1000 nM.

Consider `NS(=O)(=O)c1ccc(Cc2c(-c3ccc(F)c(-c4ccc5c(c4)CCCC5)c3)nn(-c3nc(C(=O)O)cs3)c2CC2CC2)cc1F` [Compound 143, 2-(5-(cyclopropylmethyl)-3-(4-fluoro-3-(5,6,7,8-tetrahydronaphthalen-2-yl)phenyl)-4-(3-fluoro-4-sulfamoylbenzyl)-1H-pyrazol-1-yl)thiazole-4-carboxylic acid], for which the IC50 was < 100 nM.

With `NS(=O)(=O)c1ccc(Cc2c(-c3ccc(F)c(-c4ccc(Cl)c(F)c4)c3)nn(-c3nc(C(=O)O)cs3)c2CC2CC2)cc1F` [Compound 144, 2-(3-(4′-chloro-3′,6-difluoro-[1,1′-biphenyl]-3-yl)-5-(cyclopropylmethyl)-4-(3-fluoro-4-sulfamoylbenzyl)-1H-pyrazol-1-yl)thiazole-4-carboxylic acid], the 50% inhibitory concentration (IC50) was < 100 nM.

Regarding `NS(=O)(=O)c1ccc(Cc2c(-c3cccc(C(=O)N4CCCC4)c3)nn(-c3nc(C(=O)O)cs3)c2CC2CC2)cc1` [Compound 145, 2-(5-(cyclopropylmethyl)-3-(3-(pyrrolidine-1-carbonyl)phenyl)-4-(4-sulfamoylbenzyl)-1H-pyrazol-1-yl)thiazole-4-carboxylic acid], the IC50 was < 100 nM.

Consider `NS(=O)(=O)c1ccc(Cc2c(-c3ccc(F)c(C4=CCCCC4)c3)nn(-c3nc(C(=O)O)cs3)c2CC2CC2)cc1F` [Compound 146, 2-(5-(cyclopropylmethyl)-3-(6-fluoro-2′,3′,4′,5′-tetrahydro-[1,1′-biphenyl]-3-yl)-4-(3-fluoro-4-sulfamoylbenzyl)-1H-pyrazol-1-yl)thiazole-4-carboxylic acid], for which the IC50 is < 100 nM.

For the molecule `CC(C)(C)NC(=O)c1cc(-c2nn(-c3nc(C(=O)O)cs3)c(CC3CC3)c2Cc2ccc([S+](N)(=O)[O-])c(F)c2)ccc1F` [Compound 147, 2-(3-(3-(tert-butylcarbamoyl)-4-fluorophenyl)-5-(cyclopropylmethyl)-4-(3-fluoro-4-sulfamoylbenzyl)-1H-pyrazol-1-yl) thiazole-4-carboxylic acid], the IC50 was < 100 nM.

`NS(=O)(=O)c1ccc(Cc2c(-c3ccc(F)c(-c4cccc(Cl)c4)c3)nn(-c3nc(C(=O)O)cs3)c2CC2CC2)cc1F` [Compound 149, 2-(3-(3′-chloro-6-fluoro-[1,1′-biphenyl]-3-yl)-5-(cyclopropylmethyl)-4-(3-fluoro-4-sulfamoylbenzyl)-1H-pyrazol-1-yl)thiazole-4-carboxylic acid]: the IC50 is < 100 nM.

As to `N[S+](=O)([O-])c1ccc(Cc2c(-c3ccc(F)c(C(=O)N4CCCC4)c3)nn(-c3nc(C(=O)O)cs3)c2CC2CC2)cc1F` [Compound 154], the IC50 was < 100 nM.

For `NS(=O)(=O)c1ccc(Cc2c(-c3ccc(F)c(-c4ccc5c(c4)CCC5)c3)nn(-c3nc(C(=O)O)cs3)c2CC2CC2)cc1F` [Compound 155, 2-(5-(cyclopropylmethyl)-3-(3-(2,3-dihydro-1H-inden-5-yl)-4-fluorophenyl)-4-(3-fluoro-4-sulfamoylbenzyl)-1H-pyrazol-1-yl)thiazole-4-carboxylic acid], the IC50 was < 100 nM.

With `NS(=O)(=O)c1ccc(Cc2c(-c3ccc(F)c(-c4nc5ccccc5[nH]4)c3)nn(-c3nc(C(=O)O)cs3)c2CC2CC2)cc1F` [Compound 160, 2-(3-(3-(1H-benzo[d]imidazol-2-yl)-4-fluorophenyl)-5-(cyclopropylmethyl)-4-(3-fluoro-4-sulfamoylbenzyl)-1H-pyrazol-1-yl)thiazole-4-carboxylic acid], the IC50 was < 100 nM.

Take `NS(=O)(=O)c1ccc(Cc2c(-c3cccc(-c4ccc(C5CC5)cc4)c3)nn(-c3nc(C(=O)O)cs3)c2CC2CC2)cc1F` [Compound 183, 2-(3-(4′-cyclopropyl-[1,1′-biphenyl]-3-yl)-5-(cyclopropylmethyl)-4-(3-fluoro-4-sulfamoylbenzyl)-1H-pyrazol-1-yl)thiazole-4-carboxylic acid]: the IC50 was < 100 nM.

For `CC(C)(C)NC(=O)c1cccc(-c2nn(-c3nc(C(=O)O)cs3)c(CC3CC3)c2Cc2ccc([S+](N)(=O)[O-])cc2)c1` [Compound 188, 2-(3-(3-(tert-butylcarbamoyl)phenyl)-5-(cyclopropylmethyl)-4-(4-sulfamoylbenzyl)-1H-pyrazol-1-yl)thiazole-4-carboxylic acid], the IC50 was < 100 nM.

As to `NS(=O)(=O)c1ccc(Cc2c(-c3cccc(-c4nc5ccccc5[nH]4)c3)nn(-c3nc(C(=O)O)cs3)c2CC2CC2)cc1F` [Compound 189, 2-(3-(3-(1H-benzo[d]imidazol-2-yl)phenyl)-5-(cyclopropylmethyl)-4-(3-fluoro-4-sulfamoylbenzyl)-1H-pyrazol-1-yl)thiazole-4-carboxylic acid], the IC50 is < 100 nM.

For the molecule `COc1ccc(-c2cc(-c3nn(-c4nc(C(=O)O)cs4)c(CC4CC4)c3Cc3ccc(S(N)(=O)=O)c(F)c3)ccc2F)cc1Cl` [Compound 191, 2-(3-(3′-chloro-6-fluoro-4′-methoxy-[1,1′-biphenyl]-3-yl)-5-(cyclopropylmethyl)-4-(3-fluoro-4-sulfamoylbenzyl)-1H-pyrazol-1-yl)thiazole-4-carboxylic acid], the IC50 was < 100 nM.
